Reference: PMC10343724, “Evaluation of Antimicrobial, Anticholinesterase Potential of Indole Derivatives and Unexpectedly Synthesized Novel Benzodiazine: Characterization, DFT and Hirshfeld Charge Analysis” (Molecules, 2023)

Assays:
[1] = test system: antibiotic-resistant strains of Staphylococcus aureus; experiment: Disc diffusion assay, antibacterial activity; assay type: cell-based; settings: clinically isolated antibiotic-resistant S. aureus
Experimental: (§1) Disc diffusion assay was performed to evaluate the antibacterial potential of compounds (8, 9, 10 and 12) against antibiotic-resistant strains of Salmonella Typhi and Staphylococcus aureus. […] Heterocyclic compounds are well-known for their antibacterial potential. A series of Benzoxazepine derivatives have shown promising antibacterial activities against Staphylococcus sciuri (zone of inhibition as 8–21 mm) and E. coli (zone of inhibition as 8–14 mm). Isoxazolyl benzo [1, 4]diazepine-5-ones have shown antibacterial against both G + ve (B. subtilis, B. sphaericus, S.aureus) and G-ve bacteria (P. aeruginosa, K. aerogenes, C. violaceum).
(§2) Antibacterial activity was assessed against clinically isolated, antibiotic-resistant strains of Salmonella typhi and Staphylococcus aureus using Disk diffusion assay, as previously described. Anticholinesterase activity was also performed, as described earlier for indoles.

acetylcholinesterase = acetylcholinesterase (Homo sapiens, UniProt P22303); experiment: biochemical; settings: apparent value; due to solubility issues the IC50 values can be far less; read-out: IC50, acetylcholinesterase inhibition
Experimental: (§3) Azine derivatives, benzoxazepines and benzodiazepines show various biological activities, including antibacterial, antifungal, and anticholinesterase activities. This makes benzo-diazine an excellent candidate for exploration of its potential for cholinesterase inhibition and antimicrobial activities.
as §2

[2] = Solubility behaviour in the anticholinesterase reaction mixture; assay type: physicochemical; settings: anticholinesterase assay reaction mixture
Source text: as §3

[3] = test system: antibiotic-resistant strains of Salmonella Typhi; experiment: Disc diffusion assay, antibacterial activity; assay type: cell-based; settings: clinically isolated antibiotic-resistant S. Typhi
Experimental: as §1, §2

Sequence of acetylcholinesterase (P22303 32-614): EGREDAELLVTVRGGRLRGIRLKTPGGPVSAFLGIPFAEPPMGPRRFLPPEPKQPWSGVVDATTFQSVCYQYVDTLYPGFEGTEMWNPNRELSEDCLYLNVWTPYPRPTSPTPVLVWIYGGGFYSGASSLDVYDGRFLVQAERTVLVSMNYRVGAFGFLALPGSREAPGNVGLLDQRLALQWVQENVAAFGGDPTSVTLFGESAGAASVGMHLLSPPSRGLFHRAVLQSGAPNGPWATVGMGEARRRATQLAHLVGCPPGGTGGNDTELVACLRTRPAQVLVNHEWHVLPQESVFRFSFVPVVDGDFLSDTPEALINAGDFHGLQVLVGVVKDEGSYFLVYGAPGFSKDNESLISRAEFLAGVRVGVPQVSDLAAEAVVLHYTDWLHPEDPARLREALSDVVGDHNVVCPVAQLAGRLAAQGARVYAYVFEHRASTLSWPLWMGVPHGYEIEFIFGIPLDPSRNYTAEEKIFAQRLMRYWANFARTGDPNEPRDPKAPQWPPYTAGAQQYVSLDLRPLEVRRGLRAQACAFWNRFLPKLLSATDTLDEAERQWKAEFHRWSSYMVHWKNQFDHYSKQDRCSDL

SMILES	zone of inhibition (ZOI) [1]	IC50 (acetylcholinesterase) [µM]	precipitation in the reaction mixture [2]	zone of inhibition (ZOI) [3]
COc1cc(OC)c2c(-c3ccccc3)c(-c3ccccc3)[nH]c2c1C(=O)C(Cl)(Cl)Cl [Compound 8, 7-Trichloro-acetyl-4,6-Dimethoxy-2,3-Diphenyl-1H-Indole]	~ 18 mm	7.31	–	–
COc1cc(OC)c2c(-c3ccccc3)c(-c3ccccc3)[nH]c2c1C(=O)O [Compound 9, 4,6-Dimethoxy-2,3-Diphenylindole-7-Carboxylic Acid]	~21 mm	–	precipitated even at lower concentrations	–
COc1cc(OC)c2c(-c3ccccc3)c(-c3ccccc3)[nH]c2c1C(N)=O [Compound 10, 4,6-Dimethoxy-2,3-Diphenyl-1H-Indole-7-Carboxamide]	~17 mm	–	–	–
COC(=O)C(C)Oc1nc(-c2ccccc2)nc2c(C(=O)c3ccccc3)c(OC)cc(OC)c12 (stereo not drawn) [Compound 12, 8-Benzoyl-5,7-Dimethoxy-4-(1‴-Methyoxycarbonylethoxy)-2-Phenyl-1,3-Benzodiazine]	~20 mm	6.11	precipitated even at lower concentrations	~ 13 mm
